Assay [1] has as its system M. tuberculosis inside the host macrophage. The experiment in a line: QIM: Quantification of Intracellular Mycobacteria (intracellular growth assay, phenotypic cell-based). The note with it: Mycobacterium tuberculosis; MIC, 80% bacterial growth inhibition; intracellular growth; read-out: QIM. The source says: Accordingly, a phenotypic cell-based assay, suitable for high throughput screening, which allows for the search of compounds that would prevent M. tuberculosis multiplication inside the host macrophage was utilized (WO2010003533A2), overcoming many of the numerous and burdensome steps involved in previous methodologies (Arain et al., 1996).
(§1) A 120,000 small molecule compound library was screened using a validated phenotypic cell-based assay (WO2010003533A2). Active compounds from the primary screen were confirmed via dose response in the intracellular (QIM) assay and an in vitro (QUM) assay, wherein the abbreviation “QIM” stands for Quantification of Intracellular Mycobacteria and the abbreviation “QUM” stands for Quantification of in vitro grown Mycobacteria. […] The MIC is the minimum concentration of compound required to obtain 80% bacterial growth inhibition.
(§2) The imidazopyridine compounds (scaffolds Ia and Ib; see Table 1) underwent derivatization according to the methods outlined below (Schemes 1-13). Resulting derivatives were examined for inhibitory activity (MIC) using the assays described above (Example 1) and the results are summarized in Table 1.

Assay [2] deals with in vitro grown Mycobacteria (M. tuberculosis). The experiment in a line: QUM: Quantification of in vitro grown Mycobacteria (in vitro growth fluorescence assay). The following applies: Mycobacterium tuberculosis; MIC, 80% bacterial growth inhibition; in vitro growth; read-out: QUM. It is filed as cell-based.
Text: as §1, §2

Among the data in patent US8865734B2 (priority 2010, dated 2014) are MIC values, retold here.

Each structure is given as a SMILES string. ≈ marks a conversion by molar mass, not a printed value.

Take `CCc1nc2ccc(Cl)cn2c1C(=O)NCc1ccc(N2CCC(Oc3ccc(OC(F)(F)F)cc3)CC2)cc1` [Compound 139, 6-Chloro-2-ethyl-N-(4-(4-(4-(trifluoromethoxy)phenoxy)piperidin-1-yl)benzyl)imidazo-[1,2-a]pyridine-3-carboxamide]: the MIC in assay [1] and in assay [2] was less than 1 µM in each case.

Consider `CCc1nc2cnccn2c1C(=O)NCc1ccc(-c2ccc(Cl)cc2)cc1` [Compound 141, N-((4′-Chlorobiphenyl-4-yl)methyl)-2-ethylimidazo[1,2-a]pyrazine-3-carboxamide], for which the MIC in assay [1] and in assay [2] was less than 1 µM each time.

With `CCc1nc2cc(Cl)ccn2c1C(=O)NCc1ccc2oc(-c3ccc(OC(F)(F)F)cc3)nc2c1` [Compound 208, 7-Chloro-2-ethyl-N-((2-(4-(trifluoromethoxy)phenyl)benzo[d]oxazol-5-yl)methyl)imidazo[1,2-a]pyridine-3-carboxamide], the MIC in assay [1] and in assay [2] was less than 1 µM each time.

As to `CCCC(=O)NCc1ccc(N2CCN(c3ccc(CNC(=O)c4c(CC)nc5cc(Cl)ccn45)cc3)CC2)cc1` [Compound 144, N-(4-(4-(4-(Butyramidomethyl)phenyl)piperazin-1-yl)benzyl)-7-chloro-2-ethylimidazo-[1,2-a]pyridine-3-carboxamide], the MIC in assay [1] and in assay [2] was less than 1 µM throughout.

Turning to `CCc1nc2cc(Cl)ccn2c1C(=O)NCc1ccc(-c2ccc(Cl)cc2)cc1` [Compound 95, 7-Chloro-N-((4′-chlorobiphenyl-4-yl)methyl)-2-ethylimidazo[1,2-a]pyridine-3-carboxamide], the MIC in assay [1] and in assay [2] was less than 1 µM in each case.

In the case of `CCc1nc2ccc(Cl)cn2c1C(=O)NCc1ccc(OC(C)C)cc1` [Compound 75], the MIC in assay [1] and in assay [2] was less than 1 µM each time.

Take `Cc1nc2ccc(F)cn2c1C(=O)NCc1ccccc1` [Compound 34, N-Benzyl-6-fluoro-2-methylimidazo[1,2-a]pyridine-3-carboxamide]: the MIC in assay [1] and in assay [2] was 1 to 20 µM (≈ 0.283 to 5.67 µg/mL) each time.

For the compound `Cc1nc2cccc(C)n2c1C(=O)NCc1ccccc1` [Compound 33, N-Benzyl-2,5-dimethylimidazo[1,2-a]pyridine-3-carboxamide], the MIC in assay [1] and in assay [2] was more than 20 µM throughout.

`CCCC(=O)NCc1ccc(-c2ccc(CNC(=O)c3c(CC)nc4cc(Cl)ccn34)cc2)cc1` [Compound 159, N-((4′-(Butyramidomethyl)biphenyl-4-yl)methyl)-7-chloro-2-ethylimidazo[1,2-a]pyridine-3-carboxamide]: the MIC in assay [1] and in assay [2] was less than 1 µM in each case.

Take `CCc1nc2cc(Cl)ccn2c1C(=O)NCc1ccc(N2CCC(Oc3ccc(OC(F)(F)F)cc3)CC2)cc1` [Compound 140, 7-Chloro-2-ethyl-N-(4-(4-(4-(trifluoromethoxy)phenoxy)piperidin-1-yl)benzyl)imidazo-[1,2-a]pyridine-3-carboxamide]: the MIC in assay [1] and in assay [2] was less than 1 µM throughout.

`CCc1nc2cc(Cl)ccn2c1C(=O)NCc1ccc(N2CCCC2)cc1` [Compound 212, 7-Chloro-2-ethyl-N-(4-(pyrrolidin-1-yl)benzyl)imidazo[1,2-a]pyridine-3-carboxamide]: the MIC in assay [1] and in assay [2] was less than 1 µM throughout.

As to `CCc1nc2ccc(Cl)cn2c1C(=O)NCc1ccn(-c2ccc(C(F)(F)F)cc2)n1` [Compound 233, 6-Chloro-2-ethyl-N-4-((1-(4-(trifluoromethyl)phenyl)-1H-pyrazol-3-yl)methyl)imidazo[1,2-a]pyridine-3-carboxamide], the MIC in assay [1] and in assay [2] was more than 20 µM each time.

With `CCc1nc2ccc(Br)cn2c1C(=O)NCc1ccc(OC(F)(F)F)cc1` [Compound 152, 6-Bromo-2-ethyl-N-(4-(trifluoromethoxy)benzyl)imidazo[1,2-a]pyridine-3-carboxamide], the MIC in assay [1] and in assay [2] was less than 1 µM throughout.

Consider `CCc1nc2cc(Cl)ccn2c1C(=O)NCc1ccc(O)cc1` [Compound 88, 7-Chloro-2-ethyl-N-(4-hydroxybenzyl)imidazo[1,2-a]pyridine-3-carboxamide], for which the MIC in assay [1] and in assay [2] was 1 to 20 µM (≈ 0.33 to 6.6 µg/mL) in each case.

On to `CCc1nc2ccccn2c1C(=O)NCc1ccc2ccn(C)c2c1` [Compound 58, 2-Ethyl-N-((1-methyl-1H-indol-6-yl)methyl)imidazo[1,2-a]pyridine-3-carboxamide], for which the MIC in assay [1] and in assay [2] was 1 to 20 µM (≈ 0.332 to 6.65 µg/mL) each time.

In the case of `CCc1nc2ccc(Cl)cn2c1C(=O)NCc1ccc(N2CCOCC2)cc1` [Compound 74], the MIC in assay [1] and in assay [2] was less than 1 µM in each case.

As for `CCc1nc2ccc(Cl)cn2c1C(=O)NCc1ccc(-c2cccc(C#N)c2)cc1` [Compound 127, 6-Chloro-N-((3′-cyanobiphenyl-4-yl)methyl)-2-ethylimidazo[1,2-a]pyridine-3-carboxamide], the figures for the MIC in assay [1] and in assay [2] were less than 1 µM and more than 20 µM, respectively.

`Cc1nc2ccccn2c1C(=O)Nc1ccc(OCc2ccccc2)cc1` [Compound 7, N-(4-(Benzyloxy)phenyl)-2-methylimidazo[1,2-a]pyridine-3-carboxamide]: the MIC in assay [1] and in assay [2] was more than 20 µM throughout.

As to `COC(=O)c1ccc(CNC(=O)c2c(C)nc3ccccn23)cc1` [Compound 10, Methyl 4-((2-me3thylimidazo[1,2-a]pyridine-3-carboxamido)methyl)benzoate], the MIC is more than 20 µM in assay [1] and 1 to 20 µM (≈ 0.323 to 6.47 µg/mL) in assay [2].

In the case of `Cc1nc2ccc(Cl)cn2c1C(=O)NCc1ccccc1` [Compound 29, N-Benzyl-6-chloro-2-methylimidazo[1,2-a]pyridine-3-carboxamide], the MIC in assay [1] and in assay [2] was 1 to 20 µM (≈ 0.3 to 6 µg/mL) each time.

With `CCc1nc2cc(Cl)ccn2c1C(=O)NCc1ccc(Oc2ccc(F)cc2)cc1` [Compound 188, 7-Chloro-2-ethyl-N-(4-(4-fluorophenoxy)benzyl)imidazo[1,2-a]pyridine-3-carboxamide], the MIC in assay [1] and in assay [2] was less than 1 µM in each case.

Turning to `CCc1nc2cc(Cl)ccn2c1C(=O)NCc1ccc(-c2ccccc2)cc1` [Compound 93], the MIC in assay [1] and in assay [2] was less than 1 µM throughout.

As to `CCCCCNc1ccc(CNC(=O)c2c(CC)nc3cc(Cl)ccn23)cc1` [Compound 107, 7-Chloro-2-ethyl-N-(4-(pentylamino)benzyl)imidazo[1,2-a]pyridine-3-carboxamide], the MIC in assay [1] and in assay [2] was less than 1 µM each time.

Take `CCc1nc2cc(Cl)ccn2c1C(=O)NCc1ccc(N2CCC(C)CC2)cc1` [Compound 215, 7-Chloro-2-ethyl-N-(4-(4-methylpiperidin-1-yl)benzyl)imidazo[1,2-a]pyridine-3-carboxamide]: the MIC in assay [1] and in assay [2] was less than 1 µM throughout.

As to `CCc1nc2ccc(Cl)cn2c1C(=O)N1CCC(OCc2ccc(OC(F)(F)F)cc2)CC1` [Compound 230, (6-Chloro-2-ethylimidazo[1,2-a]pyridin-3-yl)(4-(4-(trifluoromethoxy)benzyloxy)piperidin-1-yl)methanone], the MIC in assay [1] and in assay [2] was more than 20 µM in each case.

In the case of `CCc1nc2ccc(Cl)cn2c1C(=O)NCc1ccc(N2CCCCCC2)cc1` [Compound 221, N-(4-(Azepan-1-yl)benzyl)-6-chloro-2-ethylimidazo[1,2-a]pyridine-3-carboxamide], the MIC in assay [1] and in assay [2] was less than 1 µM in each case.

Regarding `Cc1nc2ccccn2c1C(=O)NCc1ccc(C(=O)O)cc1` [Compound 11, 4-((2-Methylimidazo[1,2-a]pyridine-3-carboxamido)methyl)benzoic acid], the MIC in assay [1] and in assay [2] was more than 20 µM throughout.

As for `CCc1nc2ccc(Cl)cn2c1C(=O)NCc1ccn(-c2ccc(OC(F)(F)F)cc2)n1` [Compound 231, 6-Chloro-2-ethyl-N-((1-(4-(trifluoromethoxy)phenyl)-1H-pyrazol-3-yl)methyl) imidazo[1,2-a]pyridine-3-carboxamide], the MIC in assay [1] and in assay [2] was less than 1 µM each time.

As to `CCc1nc2cc(Cl)c(Cl)cn2c1C(=O)NCc1ccc(N2CCN(c3ccc(F)cc3)CC2)cc1` [Compound 180, 6,7-Dichloro-2-ethyl-N-(4-(4-(4-fluorophenyl)piperazin-1-yl)benzyl)imidazo[1,2-a]pyridine-3-carboxamide], the MIC in assay [1] and in assay [2] was less than 1 µM in each case.

As for `O=C(NCc1ccc(-c2ccccc2)cc1)c1c(C(F)(F)F)nc2ccc(Cl)cn12` [Compound 99, N-(Biphenyl-4-ylmethyl)-6-chloro-2-(trifluoromethyl)imidazo[1,2-a]pyridine-3-carboxamide], the MIC in assay [1] and in assay [2] was less than 1 µM throughout.

Take `Cc1nc2ccccn2c1C(=O)O` [Compound 1, 2-Methylimidazo[1,2-a]pyridine-3-carboxylic acid]: the MIC in assay [1] and in assay [2] was more than 20 µM throughout.

`CCc1nc2ccc(Cl)cn2c1C(=O)NCc1ccc(N2CCCCC2C)cc1` (stereo not shown) [Compound 272, 6-chloro-2-ethyl-N-(4-(2-methylpiperidin-1-yl)benzyl)imidazo[1,2-a]pyridine-3-carboxamide]: the MIC in assay [1] and in assay [2] was less than 1 µM in each case.
